This is an account of results in patent publication US11053248B2, “[1,2,4]triazolo[1,5-a]pyrimidine compounds as PDE2 inhibitors” (Janssen Pharmaceutica NV, priority 2016, dated 2021).

For test [1], the target named is hPDE10A2 (Homo sapiens, UniProt Q9Y233). The test is described as follows: biochemical. To be noted: for IC50: 60 nM cAMP substrate, read-out: hPDE10A2 pIC50 (converted); for Emax: read-out: hPDE10A2 Emax. The method, then:
Rat recombinant PDE10A (rPDE10A2) was expressed in Sf9 cells using a recombinant rPDE10A baculovirus construct. Cells were harvested after 48 h of infection and the rPDE10A protein was purified by metal chelate chromatography on Ni-sepharose 6FF. Tested compounds were dissolved and diluted in 100% DMSO to a concentration 100 fold of the final concentration in the assay. Human recombinant PDE10A […] was expressed in Sf9 cells using a recombinant hPDE10A baculovirus that was made and amplified in house. Cells were harvested after 72 h of infection and the hPDE10A protein was purified by metal chelate chromatography on Ni-sepharose. Compound dilutions (0.4 μl) were added in 384 well plates to 20 μl of incubation buffer (50 mM Tris pH 7.8, 8.3 mM MgCl2, 1.7 mM EGTA). […] of rPDE10A or hPDE10A enzyme in incubation buffer was added and the reaction was started by addition of 10 μl substrate to a final concentration of 60 nM cAMP and 0.008 μCi ^3H-cAMP. The reaction was incubated for 60 minutes at room temperature. […] After sedimentation of the beads during 30 minutes the radioactivity was measured in a Perkin Elmer Topcount scintillation counter and results were expressed as cpm. For blanc values the enzyme was omitted from the reaction and replaced by incubation buffer. Control values were obtained by addition of a final concentration of 1% DMSO instead of compound.

Test [2] relates to hPDE3B. The test is described as follows: In vitro assay PDE3 (SPA, 3H-cAMP). To be noted: for hPDE3B pIC50: 0.4 μM cAMP substrate. The class given is biochemical, human. Also noted: hPDE3B Emax: unit not given here.
Test [3] deals with T1, hPDE2A (Homo sapiens, UniProt O00408).
T1 construct: made in house; host or cells: Sf9 insect cells (baculovirus)
The test is described as follows: In vitro assay PDE2A (SPA, 3H-cGMP). To be noted: for Emax: read-out: hPDE2A Emax. The test is classed as biochemical. The procedure: Human recombinant PDE2A (hPDE2A) was expressed in Sf9 cells using a recombinant rPDE10A baculovirus construct. Cells were harvested after 48 h of infection and the hPDE2A protein was purified by metal chelate chromatography on Ni-sepharose 6FF. Tested compounds were dissolved and diluted in 100% DMSO to a concentration 100 fold of the final concentration in the assay. Compound dilutions (0.4 μl) were added in 384 well plates to 20 μl of incubation buffer (50 mM Tris pH 7.8, 8.3 mM MgCl2, 1.7 mM EGTA). 10 μl of hPDE2A enzyme in incubation buffer was added and the reaction was started by addition of 10 μl substrate to a final concentration of 10 μM cGMP and 0.01 μCi ^3H-cGMP. The reaction was incubated for 45 minutes at room temperature. […] After sedimentation of the beads during 30 minutes the radioactivity was measured in a Perkin Elmer Topcount scintillation counter and results were expressed as cpm. For blanc values the enzyme was omitted from the reaction and replaced by incubation buffer. Control values were obtained by addition of a final concentration of 1% DMSO instead of compound.

Test [4] deals with T2, PDE2A (Rattus norvegicus, UniProt Q01062).
T2 construct: from tissue; host or cells: rat brain striatal sections (ex vivo)
T2 sequence (Q01062 1-928): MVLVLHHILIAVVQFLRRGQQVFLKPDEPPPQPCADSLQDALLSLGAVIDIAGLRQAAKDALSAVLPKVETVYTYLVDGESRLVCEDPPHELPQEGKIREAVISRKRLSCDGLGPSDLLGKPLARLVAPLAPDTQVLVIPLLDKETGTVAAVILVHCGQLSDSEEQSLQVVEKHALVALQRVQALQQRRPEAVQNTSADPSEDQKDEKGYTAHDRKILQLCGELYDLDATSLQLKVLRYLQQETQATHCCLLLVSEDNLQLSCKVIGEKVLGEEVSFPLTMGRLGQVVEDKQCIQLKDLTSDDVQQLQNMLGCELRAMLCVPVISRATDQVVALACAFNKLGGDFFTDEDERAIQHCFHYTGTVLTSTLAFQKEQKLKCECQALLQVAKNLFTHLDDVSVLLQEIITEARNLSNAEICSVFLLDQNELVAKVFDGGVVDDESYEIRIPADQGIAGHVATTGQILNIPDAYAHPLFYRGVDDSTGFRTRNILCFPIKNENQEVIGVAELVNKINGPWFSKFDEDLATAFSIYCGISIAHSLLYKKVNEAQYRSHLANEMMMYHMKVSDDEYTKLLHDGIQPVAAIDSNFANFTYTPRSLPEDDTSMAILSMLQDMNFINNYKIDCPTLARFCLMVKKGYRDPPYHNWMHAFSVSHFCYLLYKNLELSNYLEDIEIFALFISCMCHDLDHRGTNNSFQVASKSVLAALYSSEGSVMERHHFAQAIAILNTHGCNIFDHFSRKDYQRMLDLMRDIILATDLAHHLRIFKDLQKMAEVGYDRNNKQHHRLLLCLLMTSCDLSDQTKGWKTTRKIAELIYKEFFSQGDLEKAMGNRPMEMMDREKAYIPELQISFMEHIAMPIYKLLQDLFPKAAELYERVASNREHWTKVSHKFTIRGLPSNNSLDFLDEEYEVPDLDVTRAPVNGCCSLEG
In words: PDE2 occupancy by ex-vivo autoradiography with [3H]B-17a. The test is classed as in vivo. The conditions noted are these: rat; route SC (subcutaneous), 10 mg/kg, male Wistar rats, striatum, percentage occupancy; read-out: PDE2 occupancy at 10 mg/kg. The procedure: PDE2 Occupancy by Test Compounds Methods
Brains were immediately removed from the skull and rapidly frozen in dry-ice cooled 2-methylbutane (−40° C.).
After thawing, sections were dried under a cold stream of air and incubated for one minute with 30 nM [^3H]B-17a in Tris-HCl (50 mM, pH7.4) containing 0.3% BSA. Brain sections from drug-treated and vehicle-treated animals were incubated in parallel. […] After incubation, the excess of [^3H]B-17a was washed off in ice-cold buffer 2 times 10 minutes, followed by a quick dip in distilled water. The sections were then dried under a stream of cold air.
Brain sections were loaded in a β-imager (Biospace, Paris) for 4 h and radioactivity emerging from delineated brain area was quantified using the Beta vision program (Biospace, Paris). Specific binding was determined as the difference between total binding in the striatum and non-specific binding in the cerebellum. Percentage receptor occupancy of the drug administered to the animal corresponded to 100% minus the percentage receptor labeled in the treated animal. For the determination of ED50-values, the percentage of receptor occupancy was plotted against dose and the sigmoidal log dose-effect curve of best fit was calculated by non-linear regression analysis, using the GraphPad Prism program.

T1 sequence (O00408 whole entry): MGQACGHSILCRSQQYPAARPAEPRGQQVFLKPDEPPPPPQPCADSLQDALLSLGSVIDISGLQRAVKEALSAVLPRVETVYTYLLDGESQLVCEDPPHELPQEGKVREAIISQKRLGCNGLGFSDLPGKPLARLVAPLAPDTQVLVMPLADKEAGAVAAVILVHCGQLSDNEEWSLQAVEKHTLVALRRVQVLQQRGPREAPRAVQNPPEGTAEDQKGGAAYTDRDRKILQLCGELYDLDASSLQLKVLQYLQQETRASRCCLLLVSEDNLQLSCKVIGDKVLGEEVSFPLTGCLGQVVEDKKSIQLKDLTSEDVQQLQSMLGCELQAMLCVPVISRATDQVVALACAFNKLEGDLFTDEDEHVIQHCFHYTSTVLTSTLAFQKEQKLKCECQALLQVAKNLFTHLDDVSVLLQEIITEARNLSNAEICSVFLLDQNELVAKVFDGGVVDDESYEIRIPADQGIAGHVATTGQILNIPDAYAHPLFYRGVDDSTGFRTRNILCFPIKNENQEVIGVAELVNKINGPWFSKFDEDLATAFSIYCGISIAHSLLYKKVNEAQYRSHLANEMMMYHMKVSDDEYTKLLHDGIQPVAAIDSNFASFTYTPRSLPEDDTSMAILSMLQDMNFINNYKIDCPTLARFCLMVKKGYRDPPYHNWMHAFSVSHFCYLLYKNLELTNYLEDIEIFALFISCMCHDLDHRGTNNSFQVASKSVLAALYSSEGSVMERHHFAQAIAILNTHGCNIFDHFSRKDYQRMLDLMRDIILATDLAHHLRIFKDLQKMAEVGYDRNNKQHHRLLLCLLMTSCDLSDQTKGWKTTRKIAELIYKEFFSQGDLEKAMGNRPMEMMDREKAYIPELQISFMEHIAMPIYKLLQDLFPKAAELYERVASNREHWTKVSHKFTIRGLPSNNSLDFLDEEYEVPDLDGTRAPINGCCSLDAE
Chain of hPDE10A2 (Q9Y233 267-1055): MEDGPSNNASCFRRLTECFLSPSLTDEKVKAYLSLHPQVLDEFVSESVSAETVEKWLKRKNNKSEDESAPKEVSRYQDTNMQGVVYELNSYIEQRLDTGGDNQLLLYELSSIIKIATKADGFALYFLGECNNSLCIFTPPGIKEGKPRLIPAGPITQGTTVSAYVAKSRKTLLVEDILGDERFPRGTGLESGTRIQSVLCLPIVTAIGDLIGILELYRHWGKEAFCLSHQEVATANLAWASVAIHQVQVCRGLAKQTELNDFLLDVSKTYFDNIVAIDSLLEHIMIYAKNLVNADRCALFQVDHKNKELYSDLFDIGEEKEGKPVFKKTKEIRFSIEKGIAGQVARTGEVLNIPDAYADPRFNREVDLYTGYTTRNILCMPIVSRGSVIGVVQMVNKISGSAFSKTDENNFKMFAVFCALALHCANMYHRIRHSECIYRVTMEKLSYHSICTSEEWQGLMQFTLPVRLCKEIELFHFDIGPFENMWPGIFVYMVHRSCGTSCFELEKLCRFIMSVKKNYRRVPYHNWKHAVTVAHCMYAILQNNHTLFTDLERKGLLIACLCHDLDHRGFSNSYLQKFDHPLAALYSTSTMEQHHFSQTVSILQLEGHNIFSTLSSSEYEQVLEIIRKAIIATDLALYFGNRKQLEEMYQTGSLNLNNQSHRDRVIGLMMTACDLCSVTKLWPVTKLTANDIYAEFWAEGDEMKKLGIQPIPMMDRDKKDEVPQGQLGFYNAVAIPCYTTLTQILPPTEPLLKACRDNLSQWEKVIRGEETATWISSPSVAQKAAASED

For orientation: Emax means the greatest response seen or fitted, relative to the assay's reference. On to `CCCCOc1ccnc(N2CC[C@@H](C)[C@H](c3cc(C(F)F)nc4ncnn34)C2)c1` [Compound 11], for which, in test [1], the IC50 is 355 nM and the Emax came to 97%. Further, in test [2], the “hPDE3B Emax” value stood at 99 and the “hPDE3B pIC50” value is 6.02. Besides, in test [3], the IC50 was 13.8 nM and the maximal effect (Emax) turned out to be 99%.
In the case of `CC(C)Oc1cccnc1N1CC[C@@H](C)[C@H](c2cc(C(F)F)nc3ncnn23)C1.Cl` [Compound 31], in test [1], the IC50 is 1290 nM and the Emax is 91%. Besides, in test [2], the “hPDE3B Emax” value amounted to 27 and the “hPDE3B pIC50” value is recorded as less than 5. In test [3], the IC50 is 257 nM and the Emax was 81%.
For the compound `Cc1cccc2ccnc(N3CC[C@@H](C)C(c4cc(C(F)F)nc5ncnn45)C3)c12` (stereo partly shown) [Compound 41], in test [1], the IC50 was 4680 nM and the Emax stood at 76%. In addition, the receptor occupancy at 10 mg/kg in test [4] is -8%. Further, in test [2], the “hPDE3B Emax” value is reported as 65 and the “hPDE3B pIC50” value is 5.14. In test [3], the IC50 is 309 nM and the Emax is 99%.
As for `C[C@@H]1CCN(c2cccc(C#N)n2)C[C@H]1c1cc(C(F)F)nc2ncnn12` [Compound 24], in test [1], the IC50 was 575 nM and the maximal response (Emax) was determined as 94%. Also, in test [2], the “hPDE3B Emax” value was determined as 68 and the “hPDE3B pIC50” value was 5.17. In test [3], the IC50 was 79.4 nM and the maximal response (Emax) worked out at 100%.
For `C[C@@H]1CCN(c2nccc3ccc(F)cc23)C[C@H]1c1cc(C(F)F)nc2ncnn12` [Compound 14], in test [1], the IC50 is 389 nM and the Emax turned out to be 98%. Further, in test [2], the “hPDE3B Emax” value amounted to 62 and the “hPDE3B pIC50” value was determined as 5.29. Further, in test [3], the IC50 is 17 nM and the Emax was 101%.
Turning to `FC(F)c1cc([C@H]2CC[C@H]3CC[C@@H]2N3c2c(Br)ccc3ccncc23)n2ncnc2n1` [Compound 5], in test [1], the IC50 was 427 nM and the maximal response (Emax) was found to be 97%. For the same compound, in test [2], the “hPDE3B Emax” value came out at 76 and the “hPDE3B pIC50” value amounted to 5.27. Moreover, in test [3], the IC50 was 6.76 nM and the Emax was determined as 100%.
As for `CC(C)Oc1cccnc1N1CC[C@H](C)[C@@H](c2cc(C(F)F)nc3ncnn23)C1.Cl` [Compound 34], in test [1], the IC50 is greater than 10000 nM and the Emax amounted to 33%. For the same compound, in test [2], the “hPDE3B Emax” value amounted to 2 and the “hPDE3B pIC50” value was less than 5. In test [3], the IC50 was 2400 nM and the Emax was found to be 30%.
For `C[C@@H]1CCN(c2ccc(C(F)(F)F)cn2)C[C@H]1c1cc(C(F)F)nc2ncnn12` [Compound 38], in test [1], the IC50 was 759 nM and the Emax was determined as 92%. For the same compound, in test [2], the “hPDE3B Emax” value is listed as 49 and the “hPDE3B pIC50” value is listed as less than 5. Also, in test [3], the IC50 was 170 nM and the Emax was determined as 99%.
`COc1ccnc(N2CC[C@@H](C)[C@H](c3cc(C(F)F)nc4ncnn34)C2)c1OC.Cl` [Compound 33]: in test [1], the IC50 was 1700 nM and the Emax worked out at 82%. Further, in test [2], the “hPDE3B Emax” value amounted to 40 and the “hPDE3B pIC50” value is less than 5. In test [3], the IC50 is 166 nM and the Emax was determined as 89%.
Consider `C[C@@H]1CCN(c2ccc(F)cn2)C[C@H]1c1cc(C(F)F)nc2ncnn12` [Compound 36], for which, in test [1], the IC50 was 1510 nM and the Emax turned out to be 84%. In addition, in test [2], the “hPDE3B Emax” value turned out to be 56 and the “hPDE3B pIC50” value came out at 5.01. Moreover, in test [3], the IC50 is 245 nM and the Emax came to 100%.
Regarding `Cc1cccc(N2CC[C@@H](C)C(c3cc(C(F)F)nc4ncnn34)C2)n1` (stereo partly shown) [Compound 39], in test [1], the IC50 is 1290 nM and the Emax was 87%. For the same compound, in test [2], the “hPDE3B Emax” value amounted to 58 and the “hPDE3B pIC50” value was 5.13. In addition, in test [3], the IC50 is 145 nM and the Emax turned out to be 99%.
Turning to `C[C@@H]1CCN(c2ncc(C(F)(F)F)cc2Br)C[C@H]1c1cc(C(F)F)nc2ncnn12` [Compound 19], in test [1], the IC50 is 417 nM and the Emax turned out to be 96%. In test [2], the “hPDE3B Emax” value was 38 and the “hPDE3B pIC50” value was less than 5. Also, in test [3], the IC50 was 30.2 nM and the maximal response (Emax) turned out to be 100%.
In the case of `C[C@@H]1CCN(c2cccc(C(F)(F)F)n2)C[C@H]1c1cc(C(F)F)nc2ncnn12` [Compound 26], in test [1], the IC50 is 457 nM and the Emax stood at 95%. Besides, in test [2], the “hPDE3B Emax” value stood at 80 and the “hPDE3B pIC50” value was 5.43. Moreover, in test [3], the IC50 is 91.2 nM and the Emax was found to be 99%.
Turning to `Cc1cc([C@@H]2CN(c3nccc4ccccc34)CC[C@H]2C)n2ncnc2n1` [Compound 15], in test [1], the IC50 is 162 nM and the Emax amounted to 98%. For the same compound, in test [2], the “hPDE3B Emax” value was found to be 69 and the “hPDE3B pIC50” value was found to be 5.21. Besides, in test [3], the IC50 is 17.4 nM and the maximal effect (Emax) turned out to be 100%.
As to `C[C@@H]1CCN(c2ccc(Cl)cn2)C[C@H]1c1cc(C(F)F)nc2ncnn12` [Compound 25], in test [1], the IC50 was 692 nM and the Emax was 92%. In addition, in test [2], the “hPDE3B Emax” value is on record as 45 and the “hPDE3B pIC50” value was less than 5. Also, in test [3], the IC50 was 83.2 nM and the Emax turned out to be 101%.
For the compound `COc1cnc(N2CC[C@@H](C)[C@H](c3cc(C(F)F)nc4ncnn34)C2)c2ccccc12` [Compound 8], in test [1], the IC50 is 1020 nM and the Emax worked out at 97%. In addition, in test [2], the “hPDE3B Emax” value was 73 and the “hPDE3B pIC50” value is listed as 5.22. Further, in test [3], the IC50 was 10.7 nM and the Emax was determined as 101%.
For the compound `C[C@@H]1CCN(c2ncccc2Cl)C[C@H]1c1cc(C(F)F)nc2ncnn12` [Compound 28], in test [1], the IC50 was 692 nM and the Emax was found to be 90%. Besides, in test [2], the “hPDE3B Emax” value was 50 and the “hPDE3B pIC50” value is on record as 4.96. In addition, in test [3], the IC50 was 110 nM and the maximal response (Emax) was 99%.
